# Patent publication EP0279263B1, “Indole, benzofuran, benzothiophene containing lipoxygenase inhibiting compounds” (ABBOTT LABORATORIES, priority 1987, dated 1988)
# Target: T1, 5-lipoxygenase (Rattus norvegicus, UniProt P12527)
# T1 construct: 20,000xg supernatant from 6x10⁴ homogenized RBL-1 cells; endogenous in cells; host or cells: RBL-1 cells (homogenate, 20,000xg supernatant)
# T1 sequence (P12527 1-673): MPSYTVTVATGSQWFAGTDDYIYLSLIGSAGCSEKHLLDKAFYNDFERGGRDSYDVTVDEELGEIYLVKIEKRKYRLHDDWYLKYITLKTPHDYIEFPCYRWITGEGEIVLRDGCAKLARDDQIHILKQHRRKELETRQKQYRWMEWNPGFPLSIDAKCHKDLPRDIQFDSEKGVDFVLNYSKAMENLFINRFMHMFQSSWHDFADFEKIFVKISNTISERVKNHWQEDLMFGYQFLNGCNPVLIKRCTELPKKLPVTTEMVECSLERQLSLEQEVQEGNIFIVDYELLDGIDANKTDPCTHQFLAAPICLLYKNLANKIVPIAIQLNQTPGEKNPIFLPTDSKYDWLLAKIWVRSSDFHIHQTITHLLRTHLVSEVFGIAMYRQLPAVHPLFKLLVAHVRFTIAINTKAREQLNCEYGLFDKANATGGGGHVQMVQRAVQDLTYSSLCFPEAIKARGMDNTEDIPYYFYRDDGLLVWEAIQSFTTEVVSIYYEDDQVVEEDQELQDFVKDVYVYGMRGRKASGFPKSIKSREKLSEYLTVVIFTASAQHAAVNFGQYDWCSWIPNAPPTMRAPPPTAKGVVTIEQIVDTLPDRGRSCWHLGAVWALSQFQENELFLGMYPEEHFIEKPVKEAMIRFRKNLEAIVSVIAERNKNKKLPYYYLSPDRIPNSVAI
# Assay: Lipoxygenase IC50 determination (5-lipoxygenase inhibitory activity, RBL-1 cell supernatant)
# Type: biochemical
# Settings: 20,000xg supernatant from homogenized RBL-1 cells, radiolabelled arachidonic acid, 2% DMSO vehicle
# Protocol: Reactions were initiated by addition of radiolabelled arachidonic acid and terminated by acidification and ether extraction. Reaction products were separated from nonconverted substrate by thin layer chromatography and measured by liquid scintillation spectroscopy. All treatments were evaluated in triplicate incubations.
row,SMILES,IC50
1,"CC(c1cc2cc(F)ccc2s1)N(O)C(N)=O (stereo not shown) [Example 29, N-hydroxy-N-[1-(5-fluorobenzo[b]thien-2-yl)ethyl] urea]",500 nM
2,"CC(=O)N(O)C(C)c1cn(C)c2ccccc12 (stereo not shown) [Example 16, N-hydroxy-N-(1-(1-methylindol-3-yl)ethyl) acetamide]",2600 nM
3,"CC(C)C(=O)N(O)C(C)c1cc2ccccc2s1 (stereo not shown) [Example 21, N-hydroxy-N-(1-benzo[b]thien-2-ylethyl) 2-methylpropionamide]",380 nM
4,"CC(c1cc2ccccc2o1)N(O)C(N)=O (stereo not shown) [Example 15, N-hydroxy-N-(1-benzo[b]fur-2-ylethyl) urea]",2700 nM
5,"NC(=O)N(O)Cc1cc2ccccc2o1 [Example 49, N-hydroxy-N-benzo[b]fur-2-ylmethyl urea]",8200 nM
6,COc1cccc2cc(C(C)N(O)C(N)=O)oc12 (stereo not shown) [Example 34],1900 nM
7,"CC(c1cc2ccccc2s1)N(O)C=O (stereo not shown) [Example 20, N-hydroxy-N-(1-benzo[b]thien-2-ylethyl) formamide]",3000 nM
8,"CCNC(=O)N(O)Cc1cc2ccccc2s1 [Example 47, N-hydroxy-N-benzo[b]thien-2-ylmethyl-N'-ethyl urea]",1000 nM
9,"Cc1ccc(C)c2sc(C(C)N(O)C(N)=O)cc12 (stereo not shown) [Example 28, N-hydroxy-N-[1-(4,7-dimethylbenzo[b]thien-2-yl)ethyl] urea]",400 nM
10,"CNC(=O)N(O)Cc1cc2ccccc2s1 [Example 46, N-hydroxy-N-benzo[b]thien-2-ylmethyl N'-methyl urea]",1900 nM
11,"CC(=O)N(O)CC=Cc1cc2ccccc2s1 [Example 31, N-hydroxy-N-(3-benzo[b]thien-2-ylprop-2-enyl) acetamide]",270 nM
12,CCOc1cccc2cc(C(C)N(O)C(N)=O)oc12 (stereo not shown) [Example 36],3500 nM
13,"CC(c1cc2ccc(OCc3ccccc3)cc2o1)N(O)C(N)=O (stereo not shown) [Example 51, N-hydroxy-N-[1-(6-benzyloxybenzo[b]fur-2-yl)ethyl] urea]",250 nM
14,"CCNC(=O)N(O)C(C)c1cc2ccccc2s1 (stereo not shown) [Example 44, N-hydroxy-N-(1-benzo[b]thien-2-ylethyl) N'-ethylurea]",1800 nM
15,"Cc1c(C(C)N(O)C(N)=O)sc2ccccc12 (stereo not shown) [Example 10, N-hydroxy-N-[1-(3-methylbenzo[b]thien-2-yl)ethyl] urea]",540 nM
16,"CC(Cc1cc2ccccc2s1)N(O)C(N)=O (stereo not shown) [Example 30, N-hydroxy-N-(2-benzo[b]thien-2-yl-1-methylethyl) urea]",460 nM
17,CC(c1cc2ccccc2[nH]1)N(O)C(N)=O (stereo not shown) [Example 53],2900 nM
18,"CC(c1csc2ccccc12)N(O)C(N)=O (stereo not shown) [Example 9, N-hydroxy-N-(1-benzo[b]thien-3-ylethyl) urea]",1300 nM
19,"NC(=O)N(O)CC=Cc1cc2ccccc2s1 [Example 32, N-hydroxy-N-(3-benzo[b]thien-2-ylprop-2-enyl) urea]",350 nM
20,"CC(c1cc2ccccc2s1)N(O)C(=O)NO (stereo not shown) [Example 43, N,N'-dihydroxy-N-(1-benzo[b]thien-2-ylethyl) urea]",510 nM
21,"CC(c1cc2cc(Cl)cc(Cl)c2o1)N(O)C(N)=O (stereo not shown) [Example 33, N-hydroxy-N-[1-(5,7-dichlorobenzo[b]fur-2-yl)ethyl] urea]",360 nM
22,"CC(C1Cc2ccccc2O1)N(O)C(N)=O (stereo not shown) [Example 42, N-hydroxy-N-[1-(2,3-dihydrobenzo[b]fur-yl)ethyl] urea]",8500 nM

# The remaining molecules from weak to strong by IC50, led by results:
row,IC50,SMILES
1,21000 nM,"CC(=O)N(O)C(C)C1=Cc2ccccc2S1(=O)=O (stereo not shown) [Example 12, N-hydroxy-N-[1-benzo[b]thien-2-ylethyl) acetamide 1,1-dioxide]"
2,4000 nM,"CC(=O)n1c(C(C)N(O)C(N)=O)cc2ccccc21 (stereo not shown) [Example 39, N-hydroxy-N-[1-(1-acetylindol-2-yl)ethyl] urea]"
3,3700 nM,"CNC(=O)N(O)C(C)c1cn(C)c2ccccc12 (stereo not shown) [Example 18, N-hydroxy-N-(1-(1-methylindol-3-yl)ethyl) N'-methyl urea]"
4,3000 nM,"CC(c1cc2ccccc2n1S(C)(=O)=O)N(O)C(N)=O (stereo not shown) [Example 40, N-hydroxy-N-[1-(1-methanesulfonylindol-2-yl)ethyl] urea]"
5,2800 nM,"CC(c1cn(C)c2ccccc12)N(O)C(N)=O (stereo not shown) [Example 17, N-hydroxy-N-(1-(1-methylindol-3-yl)ethyl) urea]"
6,2300 nM,"CNC(=O)N(O)Cc1cc2ccccc2o1 [Example 50, N-hydroxy-N-benzo[b]fur-2-ylmethyl N'-methyl urea]"
7,1600 nM,"CC(c1cc2ccccc2n1C)N(O)C(N)=O (stereo not shown) [Example 24, N-hydroxy-N-(1-(1-methylindol-2-yl)ethyl) urea]"
8,1400 nM,"CC(=O)N(O)C(C)c1csc2ccccc12 (stereo not shown) [Example 8, N-hydroxy-N-(1-benzo[b]thien-3-ylethyl) acetamide]"
9,1100 nM,"CN(C)C(=O)N(O)Cc1cc2ccccc2s1 [Example 7, N-hydroxy-N-benzo[b]thien-2-ylmethyl N',N'-dimethyl urea]"
10,1000 nM,CC(c1cc2cc(Cl)ccc2[nH]1)N(O)C(N)=O (stereo not shown) [Example 38]
11,540 nM,"CC(c1cc2ccccc2s1)N(O)C(=O)N(C)C (stereo not shown) [Example 4, N-hydroxy-N-(1-benzo[b]thien-2-ylethyl) N'N'-dimethyl urea]"
12,200 nM,"CNC(=O)N(O)C(C)c1cc2ccc(OCc3ccccc3)cc2o1 (stereo not shown) [Example 52, N-hydroxy-N-[1-(6-benzyloxybenzo[b]fur-2-yl)ethyl]N'-methyl urea]"
13,200 nM,CC(C)CC(c1cc2ccccc2s1)N(O)C(N)=O (stereo not shown) [Example 48]
14,190 nM,"CNC(=S)N(O)C(C)c1cc2ccccc2s1 (stereo not shown) [Example 45, N-hydroxy-N-(1-benzo[b]thien-2-ylethyl) N'-methyl thiourea]"
15,190 nM,"CC(c1cc2ccccc2s1)N(O)C(N)=S (stereo not shown) [Example 25, N-hydroxy-N-(1-benzo[b]thien-2-ylethyl) thiourea]"
